Experimental findings from patent publication US10815238B2, “Antimicrobial compounds and methods of making and using the same” (BIOVERSYS AG, priority 2013, dated 2020) are described below.

Molecules are shown by their SMILES.

For the assay, the system named is Eschericia coli (E. coli) strain ATCC25922. Put plainly: Standard microdilution assay, MIC against E. coli ATCC25922. The settings on record: Escherichia coli; E. coli strain ATCC25922, standard microdilution assay; cutoff 16 micrograms/mL; read-out: MIC E. Coli. In kind it is cell-based. In short, it runs like this:
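MIC determined by broth microdilution following CLSI protocols, with reference strains run in parallel for quality control. Activity scored +/− at a cutoff of 16 micrograms/mL.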
(Broth dilution looks for growth in wells or tubes with falling amounts of substance.)
As usually defined, the MIC is the smallest concentration in the dilution series that meets the test's criterion for growth inhibition. `C[C@H](N)CCCc1cc(Cl)c(F)c(-c2cc3cn(-c4ccc(CNCC[C@H](N)CO)cc4)c(=O)nc3[nH]2)c1` [Compound 192]: the MIC is under 16 µg/mL.

In the case of `N=C(N)NCCCNCc1cccc(-n2cc3cc(-c4ccc(C(NC5CN(C(=N)N)C5)C(F)(F)F)cc4)[nH]c3nc2=O)c1` (centres unmarked) [Compound 89], the MIC is under 16 µg/mL.

Take `C[C@H](N)CCCc1cc(Cl)c(F)c(-c2cc3cn(-c4ccc([C@H](C)NCC[C@@H](CCc5ccccc5)NC(=N)N)cc4)c(=O)nc3[nH]2)c1` [Compound 258]: the MIC is under 16 µg/mL.

As for `C=C[C@H](N)CC[C@@H](O)c1cc(SC(F)(F)F)cc(-c2cc3cn(-c4ccc([C@H](C)NCCCNC(=N)N)cc4)c(=O)nc3[nH]2)c1` [Compound 78], the MIC was under 16 µg/mL.

As for `C[C@H](N)CCCc1cc(-c2cc3cn(-c4ccc([C@H](Cc5c[nH]nn5)NCCCNC(=N)N)cc4)c(=O)nc3[nH]2)cc(C(F)(F)F)c1` [Compound 47], the MIC was under 16 µg/mL.

With `C[C@H](N)CCCc1cc(SC(F)(F)F)cc(-c2cc3cn(-c4ccc([C@@H](CCN)NCCCNC(=N)N)cc4)c(=O)nc3[nH]2)c1` [Compound 7], the minimum inhibitory concentration (MIC) was under 16 µg/mL.

In the case of `C[C@H](NCCCNC(=N)N)c1ccc(-n2cc3cc(-c4cc(CCC[C@@H](N)CO)cc(C(F)(F)F)c4)[nH]c3nc2=O)cc1` [Compound 242], the MIC was under 16 µg/mL.

On to `C[C@H](N)CCCc1cc(Cl)c(F)c(-c2cc3cn(-c4ccc([C@H](C)N[C@H](C)CCNC(=N)N)cc4)c(=O)nc3[nH]2)c1` [Compound 225], for which the MIC was under 16 µg/mL.

With `C[C@H](N)CCCc1cc(Cl)c(F)c(-c2cc3cn(-c4ccc([C@H](C)NCC[C@H](CS(C)(=O)=O)NC(=N)N)cc4)c(=O)nc3[nH]2)c1` [Compound 289], the MIC is under 16 µg/mL.

As to `C[C@H](N)CCCc1cc(Cl)c(F)c(-c2cc3cn(-c4ccc([C@@H](NCCCNC(=N)N)c5ccc(O)cc5)cc4)c(=O)nc3[nH]2)c1` [Compound 26], the MIC was under 16 µg/mL.

`C[C@H](N)CCCc1cc(Cl)c(F)c(-c2cc3cn(-c4ccc(C[C@@H](CCCN)NC(=N)N)cc4)c(=O)nc3[nH]2)c1` [Compound 229]: the MIC is under 16 µg/mL.

Take `C[C@H](N)CCCc1cc(OC(F)(F)F)c(F)c(-c2cc3cn(-c4ccc([C@H](C)NCC[C@@H](CNCc5nccs5)NC(=N)N)cc4)c(=O)nc3[nH]2)c1` [Compound 277]: the MIC was under 16 µg/mL.

For the compound `C[C@H](N)CCCc1cc(OC(F)(F)F)c(F)c(-c2cc3cn(-c4ccc([C@@H](N)C(=O)NCCNC(=N)N)cc4)c(=O)nc3[nH]2)c1` [Compound 257], the MIC is under 16 µg/mL.

On to `N=C(N)NCCCNCc1ccc(-n2cc3cc(-c4ccc(/C=N/OCCNC(=N)N)cc4)[nH]c3nc2=O)cc1` [Compound 53], for which the MIC was under 16 µg/mL.

With `CC(C)[C@@H](N)CCNCc1ccc(-n2cc3cc(-c4cc(CCC[C@H](C)N)cc(Cl)c4F)[nH]c3nc2=O)cc1` [Compound 156], the MIC is under 16 µg/mL.

Regarding `CN[C@H](CCNCc1ccc(-n2cc3cc(-c4cc(CCC[C@H](C)N)cc(Cl)c4F)[nH]c3nc2=O)cc1)COC` [Compound 179], the MIC was under 16 µg/mL.

As to `COc1ccc(Cn2cc(CNCc3ccc(-n4cc5cc(-c6cc(CCC[C@H](C)N)cc(SC(F)(F)F)c6)[nH]c5nc4=O)cc3)nn2)cc1` [Compound 122], the MIC was over 16 µg/mL.

Take `C[C@H](N)CCCc1cc(OC(F)(F)F)c(F)c(-c2cc3cn(-c4ccc(CN[C@H](CO)CCNC(=N)N)cc4)c(=O)nc3[nH]2)c1` [Compound 250]: the MIC is under 16 µg/mL.

With `C[C@H](NCCCNC(=N)N)c1ccc(-n2cc3cc(-c4cc(OC(F)(F)F)cc([C@H]5C[C@H](N)CCO5)c4)[nH]c3nc2=O)cc1` [Compound 36], the minimum inhibitory concentration (MIC) was under 16 µg/mL.

On to `C[C@H](N)CCCc1cc(OC(F)(F)F)c(F)c(-c2cc3cn(-c4ccc([C@H](N)CCCCNC(=N)N)cc4)c(=O)nc3[nH]2)c1` [Compound 234], for which the MIC is under 16 µg/mL.

In the case of `COc1ccc(CNCc2ccc(-n3cc4cc[nH]c4nc3=O)cc2)cn1` [Compound 144], the MIC is over 16 µg/mL.

On to `C[C@H](N)CCCc1cc(Cl)c(F)c(-c2cc3cn(-c4ccc([C@H](C)N[C@@H](C)CCNC(=N)N)cc4)c(=O)nc3[nH]2)c1` [Compound 219], for which the minimum inhibitory concentration (MIC) was under 16 µg/mL.

Take `C[C@H](NCCCNC(=N)N)c1ccc(-n2cc3cc(-c4cc(COC[C@@H](N)CO)cc(SC(F)(F)F)c4)[nH]c3nc2=O)cc1` [Compound 80]: the MIC is under 16 µg/mL.

Take `C[C@H](N)CCCc1cc(Cl)c(F)c(-c2cc3cn(-c4ccc([C@H](CCN)NCCCNC(=N)N)cc4)c(=O)nc3[nH]2)c1` [Compound 19]: the MIC is under 16 µg/mL.

Consider `C[C@H](N)CCCc1cc(SC(F)(F)F)cc(-c2cc3cn(-c4ccc([C@@H](NCCCNC(=N)N)c5ccc(S(C)(=O)=O)cc5)cc4)c(=O)nc3[nH]2)c1` [Compound 40], for which the MIC was under 16 µg/mL.

As for `C=CC[C@H](N)CCNCc1ccc(-n2cc3cc(-c4cc(CCC[C@H](C)N)cc(Cl)c4F)[nH]c3nc2=O)cc1` [Compound 201], the MIC is under 16 µg/mL.

Regarding `C=C[C@H](CCN[C@@H](C)c1ccc(-n2cc3cc(-c4cc(CCC[C@H](C)N)cc(OC(F)(F)F)c4F)[nH]c3nc2=O)cc1)NC(=N)N` [Compound 237], the MIC is under 16 µg/mL.

With `COc1ccc(Cn2cc(CNCc3ccc(-n4cc5cc[nH]c5nc4=O)cc3)nn2)cc1` [Compound 131], the MIC is over 16 µg/mL.

Turning to `C[C@H](N)CCCc1cc(-c2cc3cn(-c4ccc([C@H](CCF)NCCCNC(=N)N)cc4)c(=O)nc3[nH]2)cc(C(F)(F)F)c1` [Compound 73], the MIC is under 16 µg/mL.

`CC(N)CC[C@@H](O)c1cc(-c2cc3cn(-c4ccc([C@H](C)NCCCNC(=N)N)cc4)c(=O)nc3[nH]2)cc(C(F)(F)F)c1` (some centres unmarked) [Compound 22]: the MIC is under 16 µg/mL.

With `C[C@H](N)CCCc1cc(Cl)c(F)c(-c2cc3cn(-c4ccc([C@H](C)NCC[C@@H](CNCc5nccs5)NC(=N)N)cc4)c(=O)nc3[nH]2)c1` [Compound 272], the MIC was under 16 µg/mL.

As for `C[C@H](NCCCNC(=N)N)c1ccc(-n2cc3cc(-c4cc(CCC[C@@H]5COC(=O)N5)cc(Cl)c4F)[nH]c3nc2=O)cc1` [Compound 296], the MIC is over 16 µg/mL.

As for `C[C@H](N)CCCc1cc(SC(F)(F)F)cc(-c2cc3cn(-c4ccc(CNCc5cnc(N)s5)cc4)c(=O)nc3[nH]2)c1` [Compound 159], the MIC was over 16 µg/mL.

As to `C=CC[C@@H](NCCCNC(=N)N)c1ccc(-n2cc3cc(-c4cc(CCC[C@H](C)N)cc(Cl)c4F)[nH]c3nc2=O)cc1` [Compound 3], the minimum inhibitory concentration (MIC) is under 16 µg/mL.

For the compound `C=CC[C@H](NCCCNC(=N)N)c1ccc(-n2cc3cc(-c4cc(CCC[C@H](C)N)cc(SC(F)(F)F)c4)[nH]c3nc2=O)cc1` [Compound 11], the MIC is under 16 µg/mL.

For `C[C@H](N)CCCc1cc(SC(F)(F)F)cc(-c2cc3cn(-c4ccc([C@H](CCO)NCCCNC(=N)N)cc4)c(=O)nc3[nH]2)c1` [Compound 24], the MIC was under 16 µg/mL.

As for `C[C@H](N)CCCc1cc(Cl)c(F)c(-c2cc3cn(-c4ccc([C@@H](CCc5ccncc5)NCCCNC(=N)N)cc4)c(=O)nc3[nH]2)c1` [Compound 69], the MIC was under 16 µg/mL.

Turning to `COCC[C@H](NCCCNC(=N)N)c1ccc(-n2cc3cc(-c4cc(CCC[C@H](C)N)cc(SC(F)(F)F)c4)[nH]c3nc2=O)cc1` [Compound 30], the MIC is under 16 µg/mL.

`C[C@H](N)CCCc1cc(Cl)c(F)c(-c2cc3cn(-c4ccc([C@H](C)NCC[C@H](Cn5ccnn5)NC(=N)N)cc4)c(=O)nc3[nH]2)c1` [Compound 293]: the MIC was under 16 µg/mL.

Consider `COc1ccc(CNCc2ccc(-n3cc4cc(-c5cc(CCC[C@H](C)N)cc(Cl)c5F)[nH]c4nc3=O)cc2)cn1` [Compound 145], for which the MIC was over 16 µg/mL.

With `C[C@H](N)CCCc1cc(Cl)c(F)c(-c2cc3cn(-c4ccc([C@H](C)NCC[C@H](C)NC(=N)N)cc4)c(=O)nc3[nH]2)c1` [Compound 222], the MIC was under 16 µg/mL.

In the case of `C[C@H](N)CCCc1cc(-c2cc3cn(-c4ccc([C@H](C)N[C@@H](C)CCNC(=N)N)cc4)c(=O)nc3[nH]2)cc(C(F)(F)F)c1` [Compound 220], the MIC was under 16 µg/mL.

Regarding `C[C@H](N)CCCc1cc(OC(F)(F)F)c(F)c(-c2cc3cn(-c4ccc([C@H](N)C(=O)NCCNC(=N)N)cc4)c(=O)nc3[nH]2)c1` [Compound 255], the MIC is under 16 µg/mL.

As to `C[C@H](N)CCCc1cc(OC(F)(F)F)c(F)c(-c2cc3cn(-c4ccc(CNCC[C@H](CN)NC(=N)N)cc4)c(=O)nc3[nH]2)c1` [Compound 311], the MIC was under 16 µg/mL.

As for `C[C@H](N)CCCc1cc(-c2cc3cn(-c4ccc([C@H](C)NCCCNC(=N)N)cc4)c(=O)nc3[nH]2)cc([S+]([O-])C(F)(F)F)c1` (some centres unmarked) [Compound 164], the MIC was under 16 µg/mL.

Consider `C[C@H](N)CCCc1cc(Cl)c(F)c(-c2cc3cn(-c4ccc([C@@H](NCCCNC(=N)N)C(=O)N5CCNCC5)cc4)c(=O)nc3[nH]2)c1` [Compound 12], for which the minimal inhibitory concentration (MIC) was under 16 µg/mL.

As for `CC(CCNCc1ccc(-n2cc3cc(-c4cc(CCC[C@H](C)N)cc(Cl)c4F)[nH]c3nc2=O)cc1)NC(=N)N` (some centres unmarked) [Compound 186], the MIC is under 16 µg/mL.

As to `C[C@H](N)CCCc1cc(Cl)c(F)c(-c2cc3cn(-c4ccc([C@H](CF)NCCCNC(=N)N)cc4)c(=O)nc3[nH]2)c1` [Compound 150], the MIC is under 16 µg/mL.

On to `C[C@H](N)CCCc1cc(SC(F)(F)F)cc(-c2cc3cn(-c4ccc(CN)cc4)c(=O)nc3[nH]2)c1` [Compound 137], for which the MIC was over 16 µg/mL.

Consider `C[C@H](N)CCCc1cc(Cl)c(F)c(-c2cc3c([nH]2)NC(=O)N(c2ccc([C@H](C)NCCCNC(=N)N)cc2)C3)c1` [Compound 246], for which the MIC was under 16 µg/mL.

With `C[C@H](N)CC[C@@H](O)c1cc(OC(F)(F)F)cc(-c2cc3cn(-c4ccc([C@H](C)NCCCNC(=N)N)cc4)c(=O)nc3[nH]2)c1` [Compound 34], the MIC was under 16 µg/mL.

In the case of `CC(N)CCNCc1ccc(-n2cc3cc(-c4cc(CCC[C@H](C)N)cc(Cl)c4F)[nH]c3nc2=O)cc1` (some centres unmarked) [Compound 160], the MIC is under 16 µg/mL.

Consider `C[C@H](N)CCCc1cc(Cl)c(F)c(-c2cc3cn(-c4ccc(CNCC#N)cc4)c(=O)nc3[nH]2)c1` [Compound 165], for which the MIC is over 16 µg/mL.
